# Columns and labels:
# [1] = test system: PPARs target genes (PDK4, UCP2); assay: Hepatic and skeletal muscle gene expression by quantitative RT-PCR in db/db mouse; format: in vivo; conditions: 50 mpk, 28 days
# Procedure: The effectiveness of the compounds according to the invention is also evaluated by measuring, in the hepatic and muscular (skeletal) tissues, the expression of genes involved in lipid and/or glucid metabolism and in energy dissipation. Each level of gene expression is normalized regarding the expression level of the reference gene 36B4 in the hepatic tissue, or regarding the expression level of the reference gene 18S in the gastrocnemius skeletal muscle. The induction factor, i.e. the ratio between the relative signal (induced by the compound according to the invention) and the average of the relative values obtained with the control group, is then calculated. The higher the induction factor is, the more the greater the compound promotes gene expression. The final result is represented as the average of the induction values obtained with each experimental group. • FIG. 4-8: Expression of PDK4 in the hepatic tissue of the db/db mouse, after 28 days of treatment with compound 1 and compound 3, administered at 50 mpk • FIG. 4-9: Expression of UCP2 (uncoupling protein 2) in the skeletal muscle tissue of the db/db mouse, after 28 days of treatment with compound 1 and compound 3, administered at 50 mpk
# Total RNA was extracted from liver fragments by using a NucleoSpin® 96 RNA kit (Macherey Nagel, Hoerdt, France) according to the manufacturer's instructions.
# Total RNA was extracted from gastrocnemius skeletal muscle fragments by using a RNeasy® Fibrous Tissue kit (Qiagen) according to the manufacturer's instructions.
# 1 μg of total RNA (quantified by spectrophotometry) was then reverse-transcripted into complementary DNA by means of a 1 hour reaction at 37° C. in a total volume of 20 μl containing a 1× buffer (Sigma), 1.5 mM of DTT, 0.18 mM of dNTPs (Promega), 200 ng of pdN6 (Amersham), 30 U of RNase inhibitor (Sigma), and 1 μl of MMLV-RT (Sigma).
# The PCR quantitative experiments were carried out using the MyiQ Single-Color Real-Time PCR Detection System (Biorad, Marnes-la-Coquette, France) and were performed using the iQ SYBR Green Supermix kit according to the provider's recommendations, in 96-well plates in 5 μl of a diluted reverse-transcription solution at a hybridization temperature of 55° C. The specific primer pairs of the genes being studied were used:
# The amount of fluorescence emitted is directly proportional to the amount of complementary DNA present at the beginning of the reaction and amplified during the PCR. For each target studied, a range of solutions is performed with successive dilutions of mixtures of a few microliters of different reverse-transcription solutions. The relative levels of expression of each target are thus determined by using efficiency curves obtained with the points relative to the range of PCR solutions. […]
# THP-1 human monocytes = assay: Secretion of MCP1 by THP-1 monocytes stimulated with PMA; format: cell-based; conditions: THP-1 cells, 1 μM compound, 5 ng/ml PMA, 24 hours, vs DMSO
# Procedure: (§1) The anti-inflammatory effects of the compound according to the invention is evaluated by measuring the secretion of MCP1 (Monocyte chemotactic protein-1) by THP1 monocytes treated for 24 hours with the compounds according to the invention and stimulated simultaneously with PMA (Phorbol 12-myristate 13-acetate, which promotes an inflammatory response in cells and their differentiation into macrophages).
# as §1, with “the compounds” for “the compound”, “invention were” for “invention is”, “by” for “by THP1”, “with” for “with the”, “macrophages). […]” for “macrophages).”
# The treatment medium is recovered and the MCP1 concentration is measured using the ELISA kit <<Human MCP-1 ELISA Set>> (BD OptEIA; 555179) in accordance with the manufacturer's recommendation.
# MCP1 is laid on a plate and is recognized by an anti-MCP1 specific antibody. […] The coloration resulting from enzymatic activity is proportional to the quantity of fixed MCP1 and can be measured by a spectrophotometry method. A range is performed from a point representative of a known concentration and from which the MCP1 concentration of each sample is calculated. […]
# db/db mouse = assay: In vivo evaluation on db/db mouse: body weight, glycemia, insulinemia, plasma lipids; conditions: 50 mpk per os, 28 days
# Procedure: The effect of the compounds according to the invention is evaluated in vivo on the db/db mouse by measuring the body weight evolution, the glucose levels, the insulin levels, the plasma total cholesterol and triglyceride levels, and by analyzing the distribution of cholesterol in different plasma lipoprotein fractions, after 28 days of a per os treatment with compounds according to the invention.
# Female db/db mice were kept on a 12 hour/12 hour light/dark cycle at a constant temperature of 20±3° C. After a one week acclimatization period, the mice were weighed and divided into groups of 8 animals selected so as to render uniform the distribution of their body weights and their plasma lipid rates, determined before the experiment. The tested compounds were suspended in carboxymethylcellulose (Sigma C4888) and administered intra-gastric tube feeding once a day for 28 days at the chosen dose. The animals had free access to food and water (standard diet). Taking of food and weight gain are recorded throughout the experiment. At the end of the experiment, the animals were anesthetized after a 4 hour fast, a blood sample was taken using (EDTA) anticoagulant, then the mice were weighed and euthanized. The plasma was separated by centrifugation at 3000 rotations/minute for 20 minutes. The samples were kept at +4° C. The hepatic tissue and skeletal muscle tissue samples were taken and frozen immediately in liquid nitrogen then conserved at −80° C. for later analysis.
# Murine plasma glucose is measured out according to an enzyme-colorimetric method using a Glucose RTU kit (Biomérieux). Glucose is transformed into gluconic acid under the action of glucose oxidase; the reaction releases hydrogen peroxide. Hydrogen peroxide is measured according to the Trinder reaction which, under the action of a peroxidase and in the presence of phenol and amino-4-antipyrine, produces water and a colored product, quinoneimine. The color intensity, due to the quinoneimine, is proportional to the amount of glucose present in the sample.
# Murine insulin is measured using ELISA method (using the INSKR020 kit from provider Crystal chem.). A microplate is coated with a mouse anti-insulin antibody. Then, the serum to be assayed for insulin is placed onto the plate. A guinea pig anti-insulin antibody is used to recognize the complex formed by the mouse insulin and the anti-insulin monoclonal antibody. Finally an anti-guinea pig antibody labeled with peroxidase is added and bind to the guinea pig anti-insulin antibody. The colorimetric reaction is performed by adding an OPD (ortho phenyl diamine) enzyme substrate. The intensity of the color is proportional to the amount of insulin present in the sample.
# Plasma lipid concentrations (total cholesterol and triglycerides) are measured by enzymatic assays (bioMérieux-Lyon-France) according to the provider's recommendations.
# The different lipid fractions (VLDL, LDL, HDL) in the plasma were separated using gel-filtration chromatography. Cholesterol concentrations were then measured for each fraction by enzymatic assays (bioMérieux-Lyon-France) according to the provider's recommendations.
smiles,measurement,setting,value
"Cc1cc(CCC(=O)c2ccc(Br)cc2)cc(C)c1OC(C)(C)C(=O)O [Compound 3, 2-[2,6-dimethyl-4-[3-[4-bromophenyl]-3-oxo-propyl]phenoxy]-2-methylpropanoic acid]",expression of the gene coding for UCP2 in the skeletal muscle,[1]; gastrocnemius skeletal muscle,reduction
same,hepatic expression of the gene coding for PDK4,[1]; hepatic tissue,significant increase
same,MCP1 secreted by monocytes,THP-1 human monocytes,significant reduction
same,HDL-cholesterol fraction (distribution of cholesterol in plasma lipoprotein fractions),db/db mouse,significant increase
same,plasma free fatty acids,db/db mouse; vs control,very significantly decreased
same,plasma triglycerides,db/db mouse; vs control,very significantly decreased
same,total plasma cholesterol,db/db mouse; vs control,significantly increased

# — US8188148B2, “Substituted 1,3-diphenylpropane derivatives, preparations and uses thereof” (Genfit, priority 2006, dated 2012)
